Activity calls are given as the source filed them.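 How the source made its calls: active means compounds whose mean EC50, the dose giving half the maximal reporter activation, is at or below a set limit; inactive means the rest.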

The test deals with CHO-CHOP luciferase reporter, UPR activation, luminescence. The test is described as follows: CHOP reporter induction, apoptotic UPR branch – CHO-CHOP cells, luciferase luminescence, confirmation (AID 489024).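 Further: compounds added alone to reporter cells with no tunicamycin stress co-treatment.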
As for `Cc1cccc(Nc2nc(-c3ccccn3)cs2)n1`, the half-maximal effective concentration (EC50) is 10.8 µM.
On to `N#CC1(C#N)COC23CCCCC2C1(C#N)C(=N)O3` (configuration not stated), for which the concentration for a half-maximal effect (EC50) is 19.3 µM.
`Cc1ccc2oc(Nc3nc(-c4ccccc4)cc(=O)[nH]3)nc2c1`: the EC50 is 7.41 µM.
For `COc1ccc(CNC[C@@H](CCCCN(C)Cc2ccc(OC)cc2)N2C[C@H](c3ccccc3)N(CCc3ccc(Cl)c(Cl)c3)C(=O)C2=O)cc1`, the 50% effective concentration (EC50) was 7.73 µM.
For `O=C(N/N=C/c1cccc2cccnc12)c1ccccc1O` the value was 18.1 µM; for `CCOC(=O)c1c(NC(C)=O)sc2c1CCC(C=O)=C2Sc1ccccc1`, 7.12 µM.
With `CN(C)CC(CCC(CN(C)C)C(O)(c1ccccc1)c1ccccc1)C(O)(c1ccccc1)c1ccccc1` (configuration not stated), the EC50 was 7.9 µM.
The figure for `COc1ccccc1N1C(=O)C=C(Sc2nc(C)cc(C)n2)C1=O` is > 80 µM (inactive); for `O=C1NC(=O)N(c2ccccc2)C(=O)/C1=C/C=C/c1ccco1` it is 9.82 µM.
The figure for `CC(C)c1ccc(N2C(=O)CC(Sc3nc4ccccc4o3)C2=O)cc1` (configuration not stated) is 15.9 µM; for `O=C(/C=C/c1ccc([N+](=O)[O-])cc1)/C=C/c1ccco1` it is 6.61 µM; for `COC(=O)C(=Cc1ccc(OCc2ccc([N+](=O)[O-])cc2)c(OC)c1)C(=O)OC` it is 5.43 µM.
The figure for `O=C(Nc1ccc(-c2nc3ncccc3o2)cc1)c1ccc([N+](=O)[O-])o1` is 1.08 µM; for `CCOC(=O)c1cnc(-n2nc(C)cc2C)nc1NC1CCCCC1` it is > 80 µM (inactive); for `Nc1nc(CC(=O)CSc2ccc(Cl)cc2)nc(Nc2ccc(F)cc2)n1` it is “inactive”.
Take `O=C(Nc1nc(-c2ccccn2)cs1)c1ccc(Cl)s1`: the EC50 is 6.11 µM.
With `O=C(NCc1ccccc1Cl)c1cccc2c1C(=O)c1ccc(-c3ccc(OC(F)(F)F)cc3)cc1S2(=O)=O`, the EC50 was > 80 µM (inactive).
`O=C(Nc1nccs1)c1cccc(N2C(=O)c3cccc4c([N+](=O)[O-])ccc(c34)C2=O)c1`: the EC50 was 11.5 µM.
The entry for `CCOC(=O)C(=CNc1nc(-c2ccccc2)c(C(=O)Nc2ccc(-c3ccccc3)cc2)s1)C(=O)OCC` is “inactive”.
`CCOC(=O)N1CCN(S(=O)(=O)c2ccc(C(=O)Nc3nc4c(s3)CC(C)CC4)cc2)CC1` (configuration not stated): the EC50 was > 80 µM (inactive).
Regarding `CCOC(=O)c1cnc(-n2nc(C)cc2C)nc1Nc1ccc(N(C)C)cc1`, the concentration giving a half-maximal response (EC50) was 16.7 µM.
Turning to `C/C(=N\NC(=O)c1cccc(Br)c1)c1ccccn1`, the EC50 is 2.36 µM.
For `Nc1cccc(-c2nc3cc(S(=O)(=O)c4ccc5oc(-c6cccc(N)c6)nc5c4)ccc3o2)c1` the value was “inactive”; for `Cc1ccc(-c2nc(NC(=O)c3nn(C)cc3[N+](=O)[O-])sc2C)cc1C`, 6.33 µM.
For `COc1cc(CNc2ccc3[nH]c(=O)[nH]c3c2)cc(Br)c1OCc1ccccc1F` the value was > 80 µM (inactive).
Take `O=C(NC(=S)Nc1ccc(NC(=O)c2cccs2)cc1)c1cc2ccccc2o1`: the EC50 entry was “inactive”.
For `O=C1Nc2ccccc2/C1=C\C(=O)c1ccccc1` the value was 14.2 µM; for `COc1cc(SC#N)ccc1N=Cc1c(C)[nH]n(-c2ccc(Cl)cc2)c1=O`, 11.9 µM; for `Cc1nc(SCC(=O)Nc2ccc(F)cc2)c(C#N)c(C)c1CC(=O)c1ccc(Br)cc1`, > 80 µM (inactive).
For `Cc1ccc2nc(-c3ccc(O)c(O)c3)cn2c1` the value was 3.6 µM; for `O=C(/C=C/c1ccc(O)c(O)c1)OCCc1ccccc1`, 0.89 µM; for `COc1ccc(/C=C/c2ccc3cccc(O)c3n2)c(OC)c1OC`, 8.23 µM.
With `CCc1ccc(-n2c(SCC(=O)c3ccc4c(c3)NC(=O)CO4)nc3ccccc3c2=O)cc1`, the 50% effective concentration (EC50) was 12.9 µM.
The figure for `CCOC(=O)c1ccc(N=C2C(=S)N(c3ccc(C(=O)OCC)cc3)C(=N)N2/N=C/c2ccccc2)cc1` is > 80 µM (inactive); for `COc1ccccc1-c1nnc(Nc2nc3c(OC)cccc3s2)o1` it is 2.48 µM.
`O=C(/C=C/c1cccnc1)c1ccc(NC(=O)c2cccc(Br)c2)cc1`: the EC50 result is “inactive”.
With `O=C(O)CC1CCC(=C(Cl)Cl)C1` (configuration not stated), the EC50 was > 80 µM (inactive).
With `Oc1ccc(-c2cn3ccccc3n2)cc1O`, the EC50 entry is “inactive”.
The entry for `COC(=O)c1cc(=O)n(CCc2ccc(OC)cc2)c(=Nc2ccc(F)c(Cl)c2)s1` is “inactive”.
For `CCN(CC)S(=O)(=O)c1cc(NC(=O)Cn2ncc(Cl)c(Cl)c2=O)ccc1C` the value was 8.03 µM; for `CCOc1cc(/C=C2/C(=O)ON=C2C)ccc1OCc1ccccc1F`, 15.9 µM; for `C/C(=N/NC(=O)c1ccc(C(C)(C)C)cc1)c1ccccn1`, 2.88 µM.
For `COc1cccc(N=Cc2c(O)c3ccccc3oc2=O)c1` the value was 8.69 µM; for `COc1ccc(C(C[N+](=O)[O-])n2nc(C)cc2C)cc1` (configuration not stated), 9.15 µM.
As for `C/C(=N\NC(=O)c1cc(Br)ccc1O)c1ccccn1`, the EC50 was 6.67 µM.
For `COc1nc(N)nc(NC(=O)c2cccs2)c1N=O` the value was 17.9 µM; for `Cc1cc(C(=O)c2ccc(Cl)cc2)c(NC(=O)CCl)s1`, 16.4 µM.
The entry for `COC(=O)c1c(NC(=O)CC2Nc3ccccc3NC2=O)sc(C)c1C` (configuration not stated) is “inactive”; for `FC(F)(F)c1nnc2c(Sc3ccccc3)nc3ccc(Cl)cc3n12` it is 3.97 µM.
For `Oc1ccc(-c2csc(Nc3cccc4ccccc34)n2)cc1O` the value was 3.19 µM.
For `CCCC[C@@H](C)C[C@@H](C)C(=O)N(C)[C@@H](CC(C)C)C(=O)N[C@H](C(=O)N(C)[C@H](C(=O)N1C[C@@H](O)C[C@H]1C(=O)N1C(=O)C=C[C@@H]1C)C(C)C)C(C)OC(C)=O` (some centres not stated), the half-maximal effective concentration (EC50) was 10.4 µM.
As for `Cc1cc(C(=O)CCl)c(C)n1-c1cccc([N+](=O)[O-])c1`, the EC50 is 8.64 µM.
For `CCOc1ccc(-c2nnc(SCC(=O)Nc3ccc4c(c3)c3ccccc3n4CC)n2N)cc1` the value was 12.6 µM.
The figure for `COc1cc(NS(=O)(=O)c2ccc3ccccc3c2)c2ncccc2c1` is 7.5 µM; for `Cc1cc(NC(=O)c2cc(-c3ccccn3)nc3ccc(Br)cc23)no1` it is > 80 µM (inactive); for `COc1ccc(-n2nc(C#N)c(Cl)cc2=O)cc1` it is 3.23 µM.
On to `COc1ccccc1N=Cc1c(O)c2ccccc2oc1=O`, for which the EC50 was 12.5 µM.
Consider `COc1cccc2sc(Nc3nc(C)c(C(C)=O)s3)nc12`, for which the EC50 is 14.7 µM.
As to `COc1ccccc1-c1cc(C(F)(F)F)nc(S(C)(=O)=O)n1`, the EC50 is 9.21 µM.
The figure for `CCCN1C/C(=C/c2ccc3c(c2)OCO3)C(=O)/C(=C/c2ccc3c(c2)OCO3)C1` is 7.78 µM.
The figure for `CSc1nnc(NC(=O)c2nc(S(=O)(=O)Cc3ccc(C)cc3)ncc2Cl)s1` is 13.6 µM; for `Oc1ccc(/C=N/Nc2ccc(C(F)(F)F)cn2)cc1O` it is 5.89 µM; for `CCc1nc(N=Nc2c(O)[nH]c3ccccc23)c2c3c(sc2n1)CCC3` it is 13.7 µM.
With `Oc1ccc(/C=N/N2CCN(C3c4ccccc4-c4ccccc43)CC2)cc1O`, the EC50 result was “inactive”.
For `COc1cc(/C=C2\CC(C(C)(C)C)C/C(=C\c3cc(OC)c(OC)c(OC)c3)C2=O)cc(OC)c1OC` (configuration not stated) the value was 6.19 µM; for `Oc1c(C(c2ccccn2)N2CCC(Cc3ccccc3)CC2)cc(Cl)c2cccnc12` (configuration not stated), “inactive”; for `O=C(Nc1ccc(-c2nc3cc(NC(=O)c4cccs4)ccc3o2)cc1)c1cccs1`, 6 µM.
The entry for `Cc1ccc(Sc2ccc(/C=C3/C(=O)NN(c4ccccc4)C3=O)o2)cc1` is “inactive”.
On to `CCOC(=O)Cc1csc(/N=C/c2c(O)n(-c3ccc(C)c(C)c3)c(=O)c3ccccc23)n1`, for which the 50% effective concentration (EC50) is 10.7 µM.
Take `CC1=CC(C)(C)Nc2ccc(OC(=O)CN3C(=O)C4CCCCC4C3=O)cc21` (configuration not stated): the EC50 was 8.07 µM.
For `CCOC(=O)N1CCN(Cc2cc(Cl)c3cccnc3c2O)CC1` the value was “inactive”; for `Cc1ccc(C)c(NC(=O)/C(C#N)=C/c2cn(CC(=O)NCc3ccco3)c3ccccc23)c1`, > 80 µM (inactive).
The figure for `O=C(Nc1nc(-c2ccccn2)cs1)c1cc(Cl)ccc1[N+](=O)[O-]` is 6.29 µM; for `Cc1cc(N/N=C/c2ccccc2[N+](=O)[O-])nc(-n2nc(C)cc2C)n1` it is 7.44 µM.
For the molecule `Oc1ccc(CN2CCC(Cc3ccccc3)CC2)c2cccnc12`, the EC50 is 5.4 µM.
For `O=c1c2ccccc2nc(/C=C/c2ccc([N+](=O)[O-])o2)n1-c1ccc(O)cc1`, the 50% effective concentration (EC50) was 13.3 µM.
On to `Oc1ccc(CN2CCN(Cc3ccccc3)CC2)c2cccnc12`, for which the EC50 entry is “inactive”.
The figure for `Cc1ccc(-c2csc3ncnc(Sc4nnc(CN5CCCCCC5=O)o4)c23)cc1` is 17.3 µM; for `COc1ccc(-c2csc3nc(-c4ccc(C)cc4)oc(=O)c23)cc1OC` it is > 80 µM (inactive); for `COc1cc(/C=C(/C(=O)c2cccs2)c2nc3ccccc3[nH]2)cc(OC)c1O` it is 9.71 µM.
The entry for `Cc1ccc(NC(=O)COc2ccc(/C=C3/SC(=Nc4ccccc4)N(Cc4cccnc4)C3=O)cc2)cc1` is “inactive”.
The figure for `CCOc1cc(/C=N/Nc2cc(C)nc(-n3nc(C)cc3C)n2)ccc1O` is 13.6 µM.

Values taken from PubChem BioAssay AID489024 (Sanford-Burnham Center for Chemical Genomics, 2010).
